Where a name gives a salt, the structure may show the parent alone.
Columns and labels:
[1] = biological target: T1, human recombinant FAP protein (Homo sapiens, UniProt Q12884); test: Inhibitory activity against FAP protease activity (Z-Gly-Pro-AMC fluorescence); assay type: biochemical; conditions: 125 pM FAP working solution, 90 min at room temperature; read-out: FAP IC50
T1 construct: purchased Acrobiosystems FAP-H82Q6
T1 sequence (Q12884 1-760): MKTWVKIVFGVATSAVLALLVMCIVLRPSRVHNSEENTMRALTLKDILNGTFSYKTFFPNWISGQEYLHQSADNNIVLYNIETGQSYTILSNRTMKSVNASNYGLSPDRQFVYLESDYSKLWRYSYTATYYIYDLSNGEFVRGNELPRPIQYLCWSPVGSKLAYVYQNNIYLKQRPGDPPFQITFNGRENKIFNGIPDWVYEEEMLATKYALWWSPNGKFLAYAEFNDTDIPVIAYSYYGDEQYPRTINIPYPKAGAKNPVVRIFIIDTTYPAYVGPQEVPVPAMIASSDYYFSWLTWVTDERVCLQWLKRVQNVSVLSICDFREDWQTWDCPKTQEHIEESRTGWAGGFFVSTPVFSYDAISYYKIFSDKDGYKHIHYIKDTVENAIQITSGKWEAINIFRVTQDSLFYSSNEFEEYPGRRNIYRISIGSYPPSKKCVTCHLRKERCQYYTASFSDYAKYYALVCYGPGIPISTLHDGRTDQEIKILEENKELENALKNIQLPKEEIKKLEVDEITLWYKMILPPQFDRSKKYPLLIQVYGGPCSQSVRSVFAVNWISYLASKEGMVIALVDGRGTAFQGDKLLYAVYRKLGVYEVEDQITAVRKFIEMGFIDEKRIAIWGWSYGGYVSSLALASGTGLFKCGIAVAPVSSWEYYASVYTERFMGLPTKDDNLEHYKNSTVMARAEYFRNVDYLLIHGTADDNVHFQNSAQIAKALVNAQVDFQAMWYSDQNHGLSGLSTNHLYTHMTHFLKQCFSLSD
In short: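 Working solutions of 125 pM recombinant human FAP and 150 µM Z-Gly-Pro-AMC, in pH 7.5 Tris buffer with 1 M NaCl and 1 mg/mL BSA, combined with 4-fold compound dilutions and reacted 90 min at room temperature in the dark. AMC fluorescence (Ex 380/Em 460 nm) used to fit IC50.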

[2] = biological target: T2, human recombinant DPP4 protein (Homo sapiens, UniProt P27487); test: Inhibitory activity against DPP4 protease activity (H-Gly-Pro-AMC fluorescence); assay type: biochemical; conditions: 125 pM DPP4 working solution, 90 min at room temperature
T2 construct: purchased Acrobiosystems DP4-H5211
In short: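 125 pM DPP4 working solution and 250 µM H-Gly-Pro-AMC working solution (stock levels, not final) in 20 mM Tris-HCl, 100 mM NaCl, mixed with compound in 4-fold dilution series. Reaction 90 min at room temperature in the dark; AMC fluorescence read at ex 380/em 460 nm, IC50 fitted from the concentration series.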

[3] = biological target: T3, human recombinant PREP protein (Homo sapiens, UniProt P48147); test: Inhibitory activity against PREP protease activity, reported as PREP/FAP IC50 ratio; assay type: biochemical; conditions: ratio of PREP IC50 to FAP IC50
T3 construct: purchased R&D systems 4308-SE-010
T3 sequence (P48147 1-710): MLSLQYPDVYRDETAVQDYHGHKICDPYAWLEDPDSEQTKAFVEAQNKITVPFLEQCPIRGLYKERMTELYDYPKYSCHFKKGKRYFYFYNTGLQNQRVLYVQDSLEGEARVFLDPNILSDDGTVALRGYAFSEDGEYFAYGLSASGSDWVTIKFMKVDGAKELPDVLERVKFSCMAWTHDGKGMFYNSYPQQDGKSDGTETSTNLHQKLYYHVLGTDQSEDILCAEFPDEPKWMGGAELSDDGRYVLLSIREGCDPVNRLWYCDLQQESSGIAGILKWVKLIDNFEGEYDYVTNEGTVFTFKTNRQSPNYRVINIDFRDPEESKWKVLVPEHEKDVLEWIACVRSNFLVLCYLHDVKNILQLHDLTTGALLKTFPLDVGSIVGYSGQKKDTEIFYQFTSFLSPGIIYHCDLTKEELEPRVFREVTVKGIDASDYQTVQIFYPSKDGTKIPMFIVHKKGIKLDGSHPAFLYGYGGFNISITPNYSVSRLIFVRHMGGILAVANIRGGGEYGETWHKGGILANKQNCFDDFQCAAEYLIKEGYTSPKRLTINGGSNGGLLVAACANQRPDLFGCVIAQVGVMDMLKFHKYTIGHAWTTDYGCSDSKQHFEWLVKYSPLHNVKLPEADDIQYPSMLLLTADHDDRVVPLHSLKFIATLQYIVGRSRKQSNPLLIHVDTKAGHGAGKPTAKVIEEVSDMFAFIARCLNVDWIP
Protocol: The human recombinant PREP protein (R&D systems, 4308-SE-010) was formulated into a 125 pM working solution with a assay buffer (25 mM Tris-HCl, 250 mM NaCl, 2.5 mM DTT, 1 mg/mL BSA), and the PREP substrate (Z-Gly-Pro-AMC (LEONBIO, 68542-93-8)) was diluted to a 125 µM PREP substrate working solution with the assay buffer. 40 µl of PREP working solution and 20 µl of compounds at different concentrations (4-fold dilution) were taken, then 40 µl of PREP substrate working solution was added, and the mixture was uniformly mixed on a shaker at room temperature for 1 min. The uniformly mixed mixture was reacted at room temperature in the dark for 90 min. Reading was made by microplate reader at excitation and emission wavelengths of 380 nm and 460 nm. The original data was saved, and the IC50 value of the compound was obtained by analyzing the data with Graphpad PRISM.

[4] = in vitro; conditions: CD-1, mouse, plasma
Protocol: The plasma stability experiment was performed using plasma from CD-1 mice. The compounds were diluted to a concentration of 1 mM with methanol. To 0.792 mL of plasma, 8.00 µL of 1 mM of each test compound was added, and 50.0 µL of the plasma sample was taken after uniform mixing. The remaining sample was placed in a 37°C water bath and incubated for 24 h. […] After centrifugation, the sample was diluted 1-fold with 0.2% trifluoroacetic acid and analyzed by LC-MS/MS.

T2 sequence (P27487 whole entry): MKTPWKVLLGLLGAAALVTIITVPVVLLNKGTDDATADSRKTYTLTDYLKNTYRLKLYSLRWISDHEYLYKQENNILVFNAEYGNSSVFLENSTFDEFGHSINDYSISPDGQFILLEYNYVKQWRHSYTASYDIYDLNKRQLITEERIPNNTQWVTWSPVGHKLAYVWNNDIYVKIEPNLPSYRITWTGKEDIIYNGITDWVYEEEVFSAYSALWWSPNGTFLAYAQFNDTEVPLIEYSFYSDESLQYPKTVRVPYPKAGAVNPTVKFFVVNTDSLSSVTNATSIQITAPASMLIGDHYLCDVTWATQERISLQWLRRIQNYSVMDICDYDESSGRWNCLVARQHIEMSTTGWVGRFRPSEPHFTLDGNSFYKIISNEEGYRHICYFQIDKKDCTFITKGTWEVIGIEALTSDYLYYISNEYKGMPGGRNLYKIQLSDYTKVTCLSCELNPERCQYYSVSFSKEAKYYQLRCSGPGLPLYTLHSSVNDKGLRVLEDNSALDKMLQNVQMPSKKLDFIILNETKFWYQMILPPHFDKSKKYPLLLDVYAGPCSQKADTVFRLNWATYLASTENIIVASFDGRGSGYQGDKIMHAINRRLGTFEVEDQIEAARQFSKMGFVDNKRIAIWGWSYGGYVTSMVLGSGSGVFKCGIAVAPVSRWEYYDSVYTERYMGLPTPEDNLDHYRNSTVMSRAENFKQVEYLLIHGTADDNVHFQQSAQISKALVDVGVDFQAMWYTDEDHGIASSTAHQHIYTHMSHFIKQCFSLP

| Molecule | IC50 [1] [nM] | IC50 [2] [nM] | PREP/FAP [3] | remaining at 24 h, 10 µM [4] [%] |
| --- | --- | --- | --- | --- |
| Hex-Cys-Pro-Pro-Thr-Gln-Phe-Cys-CH2NHAc (Cys bridge TBMB (DOTA-AET)) trifluoroacetate [Compound 10] |  |  | A (A > 10000) |  |
| CCCCCC(=O)N[C@H]1CSCc2cc(CSCCNC(=O)CN3CCN(CC(=O)O)CCN(CC(=O)O)CCN(CC(=O)O)CC3)cc(c2)CSC[C@@H](CC(=O)O)NC(=O)[C@H](Cc2ccccc2C(F)(F)F)NC(=O)[C@H](CCC(N)=O)NC(=O)[C@H]([C@@H](C)O)NC(=O)[C@@H]2CCCN2C(=O)[C@@H]2CCCN2C1=O [Compound 12, Hex-Cys-Pro-Pro-Thr-Gln- Phe(2-CF3)-beta-HomoCys (Cys bridge TBMB (DOTA-AET)) trifluoroacetate] | 0.46 | > 10000 | A (A > 10000) | 94 |

Results, then the molecule that gave them:

| IC50 [1] [nM] | IC50 [2] [nM] | PREP/FAP [3] | remaining at 24 h, 10 µM [4] [%] | Molecule |
| --- | --- | --- | --- | --- |
| 0.41 | > 10000 | B (10000 > B > 3300) | 96 | CCCCCC(=O)N[C@H]1CSCc2cccc(c2F)CSC[C@@H](CNC(=O)C[C@@H](C)NC(=O)[C@H]2CC[C@H](CNC(=O)CN3CCN(CC(=O)O)CCN(CC(=O)O)CCN(CC(=O)O)CC3)CC2)NC(=O)[C@H](Cc2ccccc2)NC(=O)[C@H](CCC(N)=O)NC(=O)[C@H]([C@@H](C)O)NC(=O)[C@@H]2CCCN2C(=O)[C@@H]2CCCN2C1=O [Compound 16, Hex-Cys-Pro-Pro-Thr-Gln-Phe-Cys-CH2NH-(D-beta-HomoAla-tranexamic acid-DOTA) (Cys bridge 2,6-bis(bromomethyl)fluorobenzene) trifluoroacetate] |
| 0.67 | > 10000 | B (10000 > B > 3300) | 93 | CCCCCC(=O)N[C@H]1CSCc2cccc(c2F)CSC[C@@H](CNC(=O)C[C@H]2CC[C@H](NC(=O)CCNC(=O)CN3CCN(CC(=O)O)CCN(CC(=O)O)CCN(CC(=O)O)CC3)CC2)NC(=O)[C@H](Cc2ccccc2)NC(=O)[C@H](CCC(N)=O)NC(=O)[C@H]([C@@H](C)O)NC(=O)[C@@H]2CCCN2C(=O)[C@@H]2CCCN2C1=O [Compound 15, Hex-Cys-Pro-Pro-Thr-Gln-Phe-Cys-CH2NH-(trans-4-aminocyclohexane acetic acid-betaAla-DOTA) (Cys bridge 2,6-bis(bromomethyl)fluorobenzene) trifluoroacetate] |
|  |  | B (10000 > B > 3300) |  | Hex-Cys-Pro-Pro-Thr-Gln-Phe-Cys-CH2NH-cyclopentacarboxylic acid (Cys bridge TBMB (DOTA-AET)) trifluoroacetate [Compound 14] |

— patent EP4653451A1, “POLYPEPTIDE COMPOUND AND USE THEREOF” (Chengdu New Radiomedicine Technology Co., Ltd., priority 2023, dated 2024)
